From ChEMBL document CHEMBL1150968, “Debromosceptrin, an alkaloid from the Caribbean sponge Agelas conifera” (1998)
The source made the active and inactive calls. The rule behind the calls is not given here.

Experiments:
[1] = system: Human immunodeficiency virus; experiment: Antiviral activity against HIV; type: functional, organism-based
[2] = system: Mycobacterium tuberculosis; experiment: Antimycobacterial activity against Mycobacterium tuberculosis at 12.5 ug/ml; type: functional

| SMILES | Activity [1] | Activity [2] [%] |
| --- | --- | --- |
| Nc1ncc([C@H]2[C@H](CNC(=O)c3ccc[nH]3)[C@@H](CNC(=O)c3ccc[nH]3)[C@@H]2c2cnc(N)[nH]2)[nH]1 | inactive | – |
| Nc1nc([C@H]2[C@H](CNC(=O)c3ccc[nH]3)[C@@H](CNC(=O)c3cc(Br)c[nH]3)[C@@H]2c2c[nH]c(N)n2)c[nH]1 | inactive | – |
| Cl.Cl.Nc1ncc([C@H]2[C@H](CNC(=O)c3ccc[nH]3)[C@@H](CNC(=O)c3cc(Br)c[nH]3)[C@@H]2c2cnc(N)[nH]2)[nH]1 [MONOBROMOSCEPTRIN] | – | 35 |
| Cl.Cl.Nc1ncc([C@H]2[C@H](CNC(=O)c3cc(Br)c[nH]3)[C@@H](CNC(=O)c3cc(Br)c[nH]3)[C@@H]2c2cnc(N)[nH]2)[nH]1 [SCEPTRIN HYDROCHLORIDE] | – | 14 |
| Nc1nc([C@H]2[C@H](CNC(=O)c3cc(Br)c[nH]3)[C@@H](CNC(=O)c3cc(Br)c[nH]3)[C@@H]2c2c[nH]c(N)n2)c[nH]1 | inactive | – |
